# Where no end group is shown, it is not given here.
# What was measured:
# p70S6K = biological target: T1, p70S6K (Homo sapiens, UniProt P23443); assay: In vitro kinase assay p70S6K; type: biochemical; settings: ten times higher concentration than 0.1 μM
# T1 construct: endogenous in cells
# Protocol: (§1) As a specific substrate, the phosphorylation level of GSK-3[…] at Ser-9 was also evaluated. […] The decrease was specific to the AKT phosphorylation site on GSK-3[…] at Ser-9, since a change in the phosphorylation level of GSK-3[…] at Tyr-216 or GSK-3[…] at Tyr-279 was not observed. Moreover, the in vivo reduction of the phosphorylation of AKT substrates was more obvious at the injection site, since a significant change in the phosphorylation of AKT substrates in the frontal cortex or cerebellum between the two hemispheres was not observed. […] To test the specificity/selectivity of ZaTa as the inhibitor of AKT1 versus the other major kinases, a series of in vitro kinase assays was performed at IC50 for AKT1 and at ten times higher concentrations. A panel of the following 32 kinases was first tested in vitro using the active form of each kinase and a specific substrate: AKT2, AKT3, PKA, PKC[…], PKC, PI3K[…], PI3K[…], PI3K, SGK, PAK2, PAK3, SAPK2/p38, Abl, CaMKII, CDK1/cyclinB, CDK5/p35, CK1, CK2, CSK, GSK3[…], GSK3[…], JNK1[…]1, MAPK1, p70S6K, PDGFR[…], PDGFR[…], PDK1, PKG1[…], TrkB, JAK2, JAK3, and Syk. […] However, at ten times higher concentration, ZaTa inhibited AKT2 (63%), PI3K[…] (72%), p70S6K (64%), SGK (73%), PAK3 (83%), JAK3 (79%), TrkB (84%), and Abl (42%). […]
# PKA, PKC, CDKs = assay: In vivo phosphorylation of substrates of PKA, PKC, CDKs (consensus-site phospho-specific antibodies); parameters: species or system mouse; settings: after in vivo injection
# Protocol: To analyze in vivo selectivity, ZaTa was injected into one hemisphere and DMSO in the other hemisphere, as above, and a series of western blot analyses was preformed with phospho-specific antibodies which recognize a phosphorylated substrate or each one of the kinases that ZaTa inhibited at higher concentrations in vitro. […] Given the high functional and structural homology between p70S6K and AKT, the in vivo inhibitory effect of ZaTa on p70S6K was contemplated. Furthermore, the in vivo effect of ZaTa on the phosphorylation levels of substrates for PKA, PKC, CDKs using phospho-specific antibodies recognizing the phosphorylated consensus sites of these kinases was analyzed. In contrast to the consistent decrease in phosphorylation of AKT substrates, significant changes in the phosphorylation level of PKA, PKC and CDKs substrates was not observed after in vivo injection of ZaTa. […]
# Abl = Abl (Homo sapiens, UniProt P00519); assay: In vitro kinase assay Abl; type: biochemical; settings: ten times higher concentration than 0.1 μM
# Chain of Abl (P00519 whole entry, species assumed): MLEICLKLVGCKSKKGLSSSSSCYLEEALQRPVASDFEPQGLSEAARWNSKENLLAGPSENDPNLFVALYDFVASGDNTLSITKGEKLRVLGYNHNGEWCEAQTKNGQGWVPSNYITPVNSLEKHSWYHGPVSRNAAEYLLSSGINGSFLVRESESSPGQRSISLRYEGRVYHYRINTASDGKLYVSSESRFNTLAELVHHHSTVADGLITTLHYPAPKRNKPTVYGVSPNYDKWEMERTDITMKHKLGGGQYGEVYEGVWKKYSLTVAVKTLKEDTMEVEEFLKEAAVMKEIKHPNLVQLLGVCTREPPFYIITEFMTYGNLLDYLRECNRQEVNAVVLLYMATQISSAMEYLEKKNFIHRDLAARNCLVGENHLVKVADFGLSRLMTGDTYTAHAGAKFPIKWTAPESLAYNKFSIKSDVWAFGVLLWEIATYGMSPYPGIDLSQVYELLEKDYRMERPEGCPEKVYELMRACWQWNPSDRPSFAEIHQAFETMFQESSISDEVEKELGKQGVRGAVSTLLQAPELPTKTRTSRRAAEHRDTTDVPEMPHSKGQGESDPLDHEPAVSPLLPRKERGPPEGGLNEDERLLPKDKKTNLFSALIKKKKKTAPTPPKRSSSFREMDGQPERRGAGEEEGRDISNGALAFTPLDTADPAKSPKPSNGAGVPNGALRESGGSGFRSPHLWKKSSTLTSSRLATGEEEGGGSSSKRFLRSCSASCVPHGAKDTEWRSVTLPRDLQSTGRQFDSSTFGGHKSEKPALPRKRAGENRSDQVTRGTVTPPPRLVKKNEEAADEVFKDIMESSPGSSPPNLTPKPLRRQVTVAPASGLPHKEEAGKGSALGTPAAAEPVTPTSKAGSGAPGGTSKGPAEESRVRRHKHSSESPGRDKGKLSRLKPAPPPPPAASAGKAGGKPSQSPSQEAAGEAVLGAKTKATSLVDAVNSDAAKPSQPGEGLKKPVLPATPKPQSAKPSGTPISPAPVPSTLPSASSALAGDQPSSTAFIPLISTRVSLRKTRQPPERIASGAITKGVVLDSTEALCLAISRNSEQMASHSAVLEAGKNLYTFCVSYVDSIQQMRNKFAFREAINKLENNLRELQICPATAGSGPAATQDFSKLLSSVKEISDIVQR
# Protocol: as §1
# T1 sequence (P23443 whole entry): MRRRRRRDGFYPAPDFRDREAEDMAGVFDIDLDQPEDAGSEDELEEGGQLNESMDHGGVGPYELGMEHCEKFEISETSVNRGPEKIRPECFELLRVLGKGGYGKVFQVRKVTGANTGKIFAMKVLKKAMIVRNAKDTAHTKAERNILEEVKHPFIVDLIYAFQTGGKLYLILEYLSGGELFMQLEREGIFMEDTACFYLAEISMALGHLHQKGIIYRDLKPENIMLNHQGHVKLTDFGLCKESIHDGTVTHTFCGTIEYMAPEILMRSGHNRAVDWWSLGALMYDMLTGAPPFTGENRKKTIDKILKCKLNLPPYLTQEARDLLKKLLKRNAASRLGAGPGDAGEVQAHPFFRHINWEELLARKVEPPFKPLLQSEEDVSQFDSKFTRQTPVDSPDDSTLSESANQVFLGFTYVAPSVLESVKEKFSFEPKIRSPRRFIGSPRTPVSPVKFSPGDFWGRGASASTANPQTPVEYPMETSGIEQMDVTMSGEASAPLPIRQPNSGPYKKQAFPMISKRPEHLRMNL
sequence,measurement,setting,value
AKRVKGRTWTLCGTPEY [ZaTa],inhibition of p70S6K,p70S6K,64%
same,"changes in phosphorylation level of PKA, PKC and CDKs substrates","PKA, PKC, CDKs",not observed
same,inhibition of Abl,Abl,42%

# — patent publication US8541670B2, “Compositions and methods for inhibiting tumor cell growth” (priority 2007, dated 2013)
